Among the data in PubChem BioAssay (NCI) are TGI and GI50 values, retold here.

Some test systems named below: HL-60(TB) leukemia; IGROV1 ovarian; OVCAR-4 ovarian; U251 CNS; 786-0 renal; SNB-19 CNS; A498 renal; SK-MEL-5 melanoma; UACC-62 melanoma; HCT-15 colon.
What all share (test): growth of human tumour cells (NCI), 48 h

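Grown in 96-well plates, cells were treated for 48 hours with each compound at five concentrations. Insufficient inhibition: endpoint recorded as highest concentration tested. GI50 = concentration required for 50% inhibition of growth. TGI: total growth inhibition.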

For `Cc1ccc(C2=C(c3ccccc3)C(Br)(c3ccc(C)cc3)C(c3ccccc3)=C2c2ccc(C)cc2)cc1`, the TGI in the assay with HL-60(TB) leukemia, in the assay on IGROV1 ovarian, with OVCAR-4 ovarian, in the assay on U251 CNS, in the assay with 786-0 renal and in the assay with SNB-19 CNS was above 100 µM throughout. Also, the TGI in the assay with A498 renal, with SK-MEL-5 melanoma, in the assay with UACC-62 melanoma and with HCT-15 colon was above 100 µM throughout.

`NS(=O)(=O)c1ccc(NC2(C(=O)O)CCCC2)cc1`: the TGI in the assay with HL-60(TB) leukemia, in the assay with IGROV1 ovarian, in the assay on OVCAR-4 ovarian, in the assay with U251 CNS, with 786-0 renal and with SNB-19 CNS was above 100 µM throughout. Also, the TGI in the assay on A498 renal, in the assay with SK-MEL-5 melanoma, with UACC-62 melanoma and in the assay on HCT-15 colon was above 100 µM throughout.

In the case of `O=C(N/N=C/c1ccc(Cl)cc1)c1ccc(C(F)(F)F)nc1Nc1cccc(C(F)(F)F)c1`, the GI50 is 1.45 µM in the assay with HL-60(TB) leukemia; 2.4 µM with IGROV1 ovarian; 0.736 µM in the assay on OVCAR-4 ovarian; 1.55 µM in the assay on U251 CNS; 0.818 µM with 786-0 renal; 2.61 µM with SNB-19 CNS. Moreover, the GI50 was 2.24 µM in the assay with A498 renal, 1.46 µM in the assay on SK-MEL-5 melanoma, 2.39 µM in the assay with UACC-62 melanoma and 0.855 µM in the assay on HCT-15 colon. The TGI was 5.69 µM in the assay with HL-60(TB) leukemia; 10.5 µM with IGROV1 ovarian; 15.2 µM in the assay on OVCAR-4 ovarian; 10.2 µM in the assay on U251 CNS; 3.63 µM in the assay on 786-0 renal; 13 µM with SNB-19 CNS. Moreover, the TGI with A498 renal was 8.69 µM; in the assay with SK-MEL-5 melanoma it was 3.55 µM; in the assay with UACC-62 melanoma, 6.15 µM; in the assay on HCT-15 colon, 12.2 µM.

`CC(C)(C)c1ccc2c(c1)S(=O)(=O)Nc1ccccc1NS(=O)(=O)c1cc(C(C)(C)C)ccc1OCCOCCOCCO2`: the TGI in the assay with HL-60(TB) leukemia was above 100 µM; in the assay with IGROV1 ovarian, above 100 µM; in the assay on OVCAR-4 ovarian it was 48 µM; in the assay with U251 CNS it was above 100 µM; in the assay on 786-0 renal, above 100 µM; in the assay on SNB-19 CNS, above 100 µM. Also, the TGI with A498 renal, with SK-MEL-5 melanoma, with UACC-62 melanoma and in the assay on HCT-15 colon was above 100 µM in each case.

As for `COc1ccc(C(=O)C(C(=O)CCC(=O)Nc2cccc(Cl)c2)c2ccc(OC)cc2)cc1` (stereo not drawn), the TGI in the assay with HL-60(TB) leukemia, in the assay with IGROV1 ovarian, in the assay on OVCAR-4 ovarian, in the assay with U251 CNS, in the assay on 786-0 renal and with SNB-19 CNS was above 100 µM each time. The TGI with A498 renal, with SK-MEL-5 melanoma, in the assay with UACC-62 melanoma and in the assay on HCT-15 colon was above 100 µM in each case.

For the compound `C=C1C(=O)O[C@@H]2/C=C(\C)CC/C=C(/COC(C)=O)C[C@@H](OC(C)=O)[C@@H]12`, the TGI is 8.52 µM in the assay on HL-60(TB) leukemia; 28.1 µM with IGROV1 ovarian; 45.1 µM with OVCAR-4 ovarian; 36.7 µM in the assay with U251 CNS; 17.7 µM in the assay with 786-0 renal; above 95.9 µM in the assay on SNB-19 CNS. The TGI with A498 renal was 36.6 µM; in the assay on SK-MEL-5 melanoma, 25.7 µM; in the assay on UACC-62 melanoma it was 26.4 µM; in the assay on HCT-15 colon, 12.4 µM.

In the case of `N=C1C(c2nc3ccccc3s2)=C(O)CN1c1cc(C(F)(F)F)ccc1Cl`, the GI50 with HL-60(TB) leukemia is 5.75 µM; in the assay with IGROV1 ovarian, 9.64 µM; in the assay on OVCAR-4 ovarian it was above 100 µM; with U251 CNS, 9.55 µM; in the assay on 786-0 renal it was 38.1 µM; with SNB-19 CNS, 60.6 µM. In addition, the GI50 with A498 renal was 24.6 µM; in the assay with SK-MEL-5 melanoma, 6.61 µM; with UACC-62 melanoma, 5.06 µM; in the assay with HCT-15 colon, 3.44 µM. The TGI in the assay with HL-60(TB) leukemia is 30.2 µM; in the assay with IGROV1 ovarian it was above 100 µM; with OVCAR-4 ovarian, above 100 µM; in the assay with U251 CNS, above 100 µM; with 786-0 renal it was above 100 µM; with SNB-19 CNS, above 100 µM. Besides, the TGI in the assay with A498 renal was 97.9 µM; in the assay with SK-MEL-5 melanoma, 46.7 µM; with UACC-62 melanoma it was 42.7 µM; in the assay with HCT-15 colon, above 100 µM.

With `COc1ccc(-c2n[nH]nc2-c2cc(OC)c(OC)c(OC)c2)cc1`, the GI50 in the assay on HL-60(TB) leukemia is below 0.01 µM; in the assay with IGROV1 ovarian it was below 0.01 µM; with OVCAR-4 ovarian, below 0.0144 µM; with U251 CNS, below 0.01 µM; with 786-0 renal, below 0.01 µM; in the assay with A498 renal, below 0.01 µM. Besides, the GI50 in the assay on SK-MEL-5 melanoma, in the assay on UACC-62 melanoma and with HCT-15 colon was below 0.01 µM in each case. Also, the TGI with HL-60(TB) leukemia is below 0.01 µM; with IGROV1 ovarian it was 9.23 µM; in the assay on OVCAR-4 ovarian it was 43.3 µM; with 786-0 renal, 17.5 µM; in the assay with SNB-19 CNS it was above 100 µM; in the assay with A498 renal, below 0.0277 µM. For the same compound, the TGI in the assay with SK-MEL-5 melanoma is 0.0224 µM; in the assay with UACC-62 melanoma, 24.6 µM; with HCT-15 colon, above 100 µM.

In the case of `COC(=O)C1=CNC=C(C(=O)OC)C1C1=CC(=O)C(C)=CC1=O`, the GI50 with HL-60(TB) leukemia was 1.71 µM; in the assay on IGROV1 ovarian it was 14.3 µM; in the assay with OVCAR-4 ovarian, 20.7 µM; with U251 CNS, 16.5 µM; in the assay with 786-0 renal, 4.3 µM; with SNB-19 CNS it was 18.5 µM. For the same compound, the GI50 in the assay with A498 renal is 13.1 µM; with SK-MEL-5 melanoma, 20.7 µM; in the assay with UACC-62 melanoma it was 13.6 µM; with HCT-15 colon, 17 µM. Moreover, the TGI with HL-60(TB) leukemia amounted to 5.88 µM; in the assay with IGROV1 ovarian it was 27.5 µM; in the assay with OVCAR-4 ovarian it was 61.7 µM; with U251 CNS, 32.1 µM; in the assay with 786-0 renal, 11.5 µM; in the assay on SNB-19 CNS, 36.7 µM. In addition, the TGI was 33.6 µM with A498 renal, 43.7 µM in the assay with SK-MEL-5 melanoma, 26.5 µM in the assay on UACC-62 melanoma and 32.6 µM in the assay on HCT-15 colon.

For the compound `COC1=C(C)C(=O)c2c(c(COC(N)=O)c3n2CC2C3N2C)C1=O` (stereo not drawn), the TGI came to 0.17 µM with HL-60(TB) leukemia; 0.351 µM in the assay on IGROV1 ovarian; 0.244 µM in the assay with OVCAR-4 ovarian; 0.0231 µM in the assay on U251 CNS; 0.102 µM with 786-0 renal; 0.256 µM in the assay on SNB-19 CNS. In addition, the TGI stood at 0.206 µM with A498 renal, 0.15 µM in the assay with SK-MEL-5 melanoma, 0.117 µM in the assay on UACC-62 melanoma and 0.0719 µM with HCT-15 colon.
